Patent EP4775575A1, “COMPOUND USED AS CDK4 KINASE INHIBITOR AND USE THEREOF” (TYK Medicines, Inc., priority 2023, dated 2025)
Like-named read-outs stand apart in the source and are kept apart here.

What was measured:
[1] = biological target: T1, CDK6/CyclinD3 (Homo sapiens, UniProt Q00534); test: Kinase activity assay (MSA, EZ Reader) against CDK6; format: biochemical; conditions: CDK6/CyclinD3 5.00 nM, ATP 350 µM, FL-Peptide34, 10mM MgCl2
T1 construct: purchased Carna 04-107

[2] = test system: Human breast cancer cells MCF-7; test: Cell anti-proliferation assay (MTT), MCF-7; format: cell-based; conditions: MCF-7 cells, incubated for 5 days
Procedure: (§1) Human breast cancer cells MCF-7, human ovarian cancer cells A2780, human mantle cell lymphoma cells JEKO-1. DMEM medium (Bio-Channel), DMSO (dimethyl sulfoxide), MTT (thiazolyl blue), 0.25% EDTA-Trypsin (trypsin digestive solution), 1×PBS (phosphate buffered saline, pH 7.2), 96-well plate (Corning), fetal bovine serum (FBS), 10,000 U/mL penicillin-G/streptomycin, high-speed refrigerated centrifuge (EPPENDORF 5810R), and microplate reader (Tecan Spark).
(§2) • A) Tumor cells were cultured in DMEM (high glucose, containing 10% FBS and 100 U/mL penicillin-G/streptomycin) at 37 °C, 5% CO2 and saturated humidity until 80-90% confluence. • B) The medium in the 10 cm culture dish was removed. • C) Cells were rinsed once with 10 mL of 1×PBS. • D) 4 mL of 0.25% EDTA-Trypsin was added, and the cells were digested in a 37 °C, 5% CO2 incubator for 5 minutes. The mixture was transferred to a 15 mL centrifuge tube, centrifuged at 200 g for 5 minutes, and the supernatant was discarded to obtain cell pellet. • E) The cells were resuspended in 4 mL of DMEM medium, counted, and adjusted to 50,000 cells/mL. • F) 100 µL of cell suspension was added to each well of a 96-well plate, and the plate was incubated overnight at 37 °C in a 5% CO2 incubator.
(§3) • A) Gradient dilution solutions of the test compounds were prepared: the test compound was prepared into a 1 mM stock solution. Then 1.5 µL of the stock solution was dissolved in 1.5 mL of DMSO-free medium, followed by 3-fold serial gradient dilution with medium containing 0.1% DMSO to give 9 concentrations.
(§4) • A) The cell culture plate was taken out, and 10 µL of 5 mg/mL MTT was added in a biological safety cabinet; • B) The plate was returned to the incubator and incubated for another 3 hours; • C) The cell culture plate was taken out and the medium was removed, 100 µL of isopropanol (containing 0.4 mM HCl, 0.1% NP-40) was added, and the plate was shaken at room temperature for 30 minutes; • D) The absorbance at 570 nm was measured using a TECAN microplate reader.

[3] = test system: human ovarian cancer cells A2780; test: Cell anti-proliferation assay (MTT), A2780; format: cell-based; conditions: incubated for 5 days
Procedure: as §1, §2, §3, §4

[4] = test system: human mantle cell lymphoma cells JEKO-1; test: Cell anti-proliferation assay (MTT), JEKO-1; format: cell-based; conditions: JEKO-1 cells, incubated for 5 days
Procedure: as §1, §2, §3, §4

[5] = Preclinical pharmacokinetic study in rats; format: in vivo, Sprague-Dawley (SD) rats; conditions: male SD rats, oral gavage (p.o.) 10 mg/kg, plasma; for AUC(0-t) / Cmax / Tmax: rat
Procedure: Healthy adult Sprague-Dawley (SD) rats, male, 6-8 weeks old, weighing 200-300 g. EDTA-Na2 anticoagulant. Analytical balance, animal weighing scale, magnetic stirrer, refrigerated centrifuge, single-channel manual pipette, etc. About 10 mg of the test sample was precisely weighed, dissolved in a calculated volume of 5% DMSO, followed by addition of 10% solutol HS-15 and 85% normal saline. The mixture was sonicated and vortexed to homogeneity to obtain a solution with a concentration of 1 mg/mL. The solution was freshly prepared before use. Animals were housed in rat cages and fasted overnight (no less than 10 h) before the test, with free access to water. On the day of the test, animals were weighed and marked on the tail. Blank blood samples were collected before administration. The blood was collected via tail vein. • Route of administration: oral gavage (p.o.) • Dose: 10 mg/kg • Dosing volume: 10 mL/kg • Procedure: The rat was held upright with the left hand wearing bite-resistant glove. A 16-gauge gavage needle was inserted through the mouth into the esophagus. The needle was advanced gently without obvious resistance, and the drug solution was injected into the stomach. Whole blood (0.1 mL) were collected from each test animal before administration and at 0.5 […], and 24 h after administration into EDTA-Na2 anticoagulant tubes. The tubes were inverted 3-4 times for mixing, then centrifuged at 10,000 g for 5 min at 4 °C to separate plasma. Plasma samples were stored at -80 °C until analysis. Blood was collected via tail vein. […] The mixture was vortexed for 2 min and centrifuged at 10,000 g for 10 min at 4 °C. Processing of unknown plasma samples: 25 μL of drug-containing rat plasma was transferred, followed by addition of 25 μL of methanol and 200 μL of internal standard solution. The mixture was vortexed for 2 min and centrifuged at 10,000 g for 10 min at 4 °C. The supernatant was collected for LC-MS/MS analysis. A quantitative method for the determination of the test compound was established using a Shimadzu liquid chromatography system coupled with Triple Quad^TM 6500+ AB mass spectrometer. The concentration of the parent drug in plasma was determined. The plasma concentration-time curve was plotted, and the main pharmacokinetic parameters were calculated using a non-compartmental model in winnonlin Phoenix software.

T1 sequence (Q00534 whole entry): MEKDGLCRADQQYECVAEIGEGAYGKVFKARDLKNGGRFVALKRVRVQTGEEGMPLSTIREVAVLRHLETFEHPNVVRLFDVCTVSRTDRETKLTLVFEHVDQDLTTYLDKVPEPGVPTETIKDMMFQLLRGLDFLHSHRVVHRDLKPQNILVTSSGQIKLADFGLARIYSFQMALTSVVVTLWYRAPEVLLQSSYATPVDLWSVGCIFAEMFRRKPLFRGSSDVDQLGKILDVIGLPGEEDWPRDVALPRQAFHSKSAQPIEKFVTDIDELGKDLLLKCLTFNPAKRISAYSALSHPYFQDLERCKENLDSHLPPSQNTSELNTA
T1 sequence (P30281 whole entry partner): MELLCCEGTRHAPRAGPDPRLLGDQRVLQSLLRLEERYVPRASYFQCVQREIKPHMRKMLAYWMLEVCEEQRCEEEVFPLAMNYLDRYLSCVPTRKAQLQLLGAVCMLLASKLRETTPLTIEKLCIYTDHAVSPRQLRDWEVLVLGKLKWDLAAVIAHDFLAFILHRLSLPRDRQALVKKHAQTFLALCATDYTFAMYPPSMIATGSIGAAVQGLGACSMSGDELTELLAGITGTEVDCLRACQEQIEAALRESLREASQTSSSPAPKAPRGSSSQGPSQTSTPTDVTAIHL

Row | Compound | IC50 ([2]; Homo sapiens, MCF7, 120 h) | IC50 ([3]; Homo sapiens, 120 h) | IC50 ([4]; Homo sapiens, 120 h) | also measured
1 | CC1CCN(C)c2nc3c(F)cc(-c4nc(N[C@@H]5CCOC[C@H]5O)ncc4Cl)cc3n21 (mixture of isomers) [TB-44, (3S,4R)-4-((5-chloro-4-(9-fluoro-1,4-dimethyl-1,2,3,4-tetrahydrobenzo[4,5]imidazo[1,2-a]pyrimidin-7-yl)pyrimidin-2-yl)amino)tetrahydro-2H-pyran-3-ol] | ≤ 500 nM | ≤ 500 nM | ≤ 500 nM | IC50 [1]: 90.2 nM
2 | C[C@H]1CCN(C2CCC2)c2nc3c(F)cc(-c4nc(N[C@@H]5CCOC[C@H]5O)ncc4Cl)cc3n21 [TA-5] | 500 to 2000 nM | ≤ 500 nM | ≤ 500 nM | 
3 | C[C@H]1CCN(C2CCCC2)c2nc3c(F)cc(-c4nc(N[C@@H]5CCOC[C@H]5O)ncc4Cl)cc3n21 [TA-6] | ≤ 500 nM | ≤ 500 nM | 500 to 2000 nM | 
4 | COc1ccc(CN2CC[C@H](C)n3c2nc2c(F)cc(-c4nc(N[C@@H]5CCOC[C@H]5O)ncc4Cl)cc23)cc1 [TA-8] | ≤ 500 nM | 500 to 2000 nM | ≤ 500 nM | 
5 | [2H]C([2H])([2H])N1CC[C@H](C)n2c1nc1c(F)cc(-c3nc(N[C@@H]4CCOC[C@H]4O)ncc3Cl)cc12 [TA-28] |  |  |  | IC50 ([2]; read-out: MCF7 IC50): ≤ 500 nM; IC50 [3]: ≤ 500 nM; IC50 [4]: ≤ 500 nM; HL_ [5]: 1.58 h; AUC(0-t) ([5]; in vivo): 2490 ng·h/mL; Cmax ([5]; in vivo): 990 ng/mL; Tmax ([5]; in vivo): 30 min
6 | C[C@H]1CCN(CC(F)(F)F)c2nc3c(F)cc(-c4nc(N[C@@H]5CCOC[C@H]5O)ncc4Cl)cc3n21 [TA-29] | ≤ 500 nM | ≤ 500 nM | ≤ 500 nM | AUC(0-t) ([5]; Sprague-Dawley): 1490 ng·h/mL; Cmax ([5]; Sprague-Dawley): 506 ng/mL; Tmax ([5]; Sprague-Dawley): 40.2 min; HL_ [5]: 1.60 h
7 | C[C@H]1CCN(C2COC2)c2nc3c(F)cc(-c4nc(N[C@@H]5CCOC[C@H]5O)ncc4Cl)cc3n21 [TA-30] | > 2000 nM | > 2000 nM | > 2000 nM | 
8 | C[C@H]1CCN([C@H]2C[C@H](O)C2)c2nc3c(F)cc(-c4nc(N[C@@H]5CCOC[C@H]5O)ncc4Cl)cc3n21 [TA-31] |  |  |  | IC50 ([2]; read-out: MCF7 IC50): > 2000 nM; IC50 [3]: 500 to 2000 nM; IC50 [4]: ≤ 500 nM
9 | C[C@H]1CCN([C@H]2C[C@@H](O)C2)c2nc3c(F)cc(-c4nc(N[C@@H]5CCOC[C@H]5O)ncc4Cl)cc3n21 [TA-42] | > 2000 nM | 500 to 2000 nM | 500 to 2000 nM | 
10 | CC(C)n1c(N2CCOC2=O)nc2c(F)cc(-c3nc(N[C@@H]4CCOC[C@H]4O)ncc3C(F)(F)F)cc21 [TB-27] |  |  |  | AUC(0-t) ([5]; Sprague-Dawley): 11500 ng·h/mL; Cmax ([5]; Sprague-Dawley): 1500 ng/mL; Tmax ([5]; Sprague-Dawley): 140 min; HL_ [5]: 3.69 h
11 | CN1CCCn2c1nc1c(F)cc(-c3nc(N[C@@H]4CCOC[C@H]4O)ncc3Cl)cc12 [TB-40] | ≤ 500 nM | ≤ 500 nM | ≤ 500 nM | IC50 [1]: 229 nM
12 | CN1CCCn2c1nc1c(F)cc(-c3nc(N[C@@H]4CCOC[C@H]4O)ncc3C(F)(F)F)cc12 [TB-41, (3S,4R)-4-((4-(9-fluoro-1-methyl-1,2,3,4-tetrahydrobenzo[4,5]imidazo[1,2-a]pyrimidin-7-yl)-5-(trifluoromethyl)pyrimidin-2-yl)amino)tetrahydro-2H-pyran-3-ol] | 500 to 2000 nM | 500 to 2000 nM | 500 to 2000 nM | 
